Test results taken from US20160304573A1, “FIBROMODULIN PEPTIDE” (The Regents of the University of California, priority 2010, published 2016).
One block for each molecule: values may come before it.

Tests used:
[1] = test system: α-smooth muscle actin (α-SMA) expression; experiment: α-SMA expression staining; assay type: cell-based; conditions: mono-treatment (200 nM FMOD or 100 pM TGF-β1); FIGS. 25B, 25C
Description: Exemplary tests on effects of FMOD and TGF-β or FMOD peptides and TGF-β on α-SMA expression were performed and shown in FIGS. 25A-25D. Expression levels of α-SMA, which is a marker for the transition of fibroblasts to myofibroblasts, were measured and presented in staining in these figures.

Rat-2 cells [2] = experiment: H&E morphology of Rat-2 cells; assay type: cell-based
Description: Exemplary tests were performed to better delineate cell morphology.

[3] = test system: connective tissue growth factor (CTGF) expression; experiment: CTGF expression and cell aggregation in Rat-2 cells, confocal staining; assay type: cell-based
Description: Results of exemplary tests on each of FMOD and FMOD-P, alone or in combination with TGF-β on CTGF expression are shown in FIGS. 28A-28D. In these tests, 4,000 cells/well passage 18 Rat-2 cells were seeded in 8-well chamber slices in DMEM medium with 10% FBS. After 6 h adhesion, fresh DMEM medium with 0.5% FBS was employed for overnight serum starvation and then treatment media added. Treatment media were changed after 24 h. Cells were fixed and staining at 48 h. Photos were captured at 630× magnifications using a confocal microscope. In these figures, the cells were stained for CTGF (connective tissue growth factor, a factor involved in cell proliferation, migration and matrix production) or DAPI (4′,6-diamidino-2-phenylindole a fluorescent stain that binds strongly to DNA-used for nuclear staining). Merged images showing both CTGF and DAPI staining are also shown.

TGF-β1 [4] = target: T1, TGF-β1 (Homo sapiens, UniProt P01137); experiment: TGF-β1 binding to biotinylated FMOD/FMOD peptides on avidin resin; non-bound TGF-β read by Mv1Lu growth inhibition (MTT); conditions: ratios 1:1, 10:1, 100:1, 1000:1 to TGF-β; overnight 4° C.; FIG. 13
T1 sequence (P01137 279-390 limits assumed): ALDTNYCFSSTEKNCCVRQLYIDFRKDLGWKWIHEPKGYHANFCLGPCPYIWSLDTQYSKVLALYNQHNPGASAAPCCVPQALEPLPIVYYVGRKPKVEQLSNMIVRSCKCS
Description: (§1) FMOD (whole protein) (SEQ ID NO:1), FMOD peptides and control protein BSA were biotinylated. While, the biotinylated proteins and peptides were bound to commercial available Piece Monomeric Avidin UltraLink Resin (Piece). The amounts of each test peptides/proteins are 1:1, 10:1, 100:1 and 1000:1 to TGF-βs, respectively. After washing out the non-bound residues, appropriate amount TGF-βs (based on the primary test assay) were added to the resin at 4° C. After overnight binding, non-bound TGF-βs were collected, followed by filter sterilization. Then, the TGF-βs residue were diluted 100 times in DEME-0.5% FBS to ensure the concentration was located in the linear region of TGF-βs on Mv1Lu proliferate inhibition.
(§2) Diluted TGF-βs was added to overnight serum-starved Mv1Lu, and fresh TGF-βs media were added for another 24 hour before MTT assay. Samples with no TGF-βs added were employed as controls.

TGF-β3 = target: T2, TGF-β3 (Homo sapiens, UniProt P10600); experiment: TGF-β3 binding to biotinylated FMOD/FMOD peptides on avidin resin; non-bound TGF-β read by Mv1Lu growth inhibition (MTT); conditions: ratios 1:1, 10:1, 100:1, 1000:1 to TGF-β; FIG. 15
T2 sequence (P10600 301-412 limits assumed): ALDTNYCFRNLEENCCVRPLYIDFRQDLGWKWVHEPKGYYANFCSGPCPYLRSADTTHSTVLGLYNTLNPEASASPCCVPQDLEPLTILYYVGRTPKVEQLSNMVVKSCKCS
Description: as §1, §2

TGF-β2 = target: T3, TGF-β2 (Homo sapiens, UniProt P61812); experiment: TGF-β2 binding to biotinylated FMOD/FMOD peptides on avidin resin; non-bound TGF-β read by Mv1Lu growth inhibition (MTT); conditions: ratios 1:1, 10:1, 100:1, 1000:1 to TGF-β; FIG. 14
T3 sequence (P61812 303-414 limits assumed): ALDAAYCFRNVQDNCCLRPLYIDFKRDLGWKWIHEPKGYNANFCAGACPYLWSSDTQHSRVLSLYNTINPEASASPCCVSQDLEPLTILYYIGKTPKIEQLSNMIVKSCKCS
Description: as §1, §2

TGF-β1 [5] = target: T1, TGF-β1; experiment: ELISA analysis of binding with TGF-β1; conditions: BSA as negative control; FIG. 3
From the text: Bovine serum albumin (BSA) was used as negative control.
SUMO-CAT from the recombinant bacteria harboring control plasmid pET_SUMO/CAT was used as negative control. To the knowledge of inventors, the TGF-binding sites within FMOD have not been reported.

[6] = target: T4, Bovine serum albumin (BSA) (bovine, UniProt P02769 25-607); experiment: biotinylated protein on avidin resin, unbound TGF-β read by Mv1Lu growth inhibition (MTT)
T4 construct: also called control BSA; control protein BSA
T4 sequence (P02769 25-607 limits assumed): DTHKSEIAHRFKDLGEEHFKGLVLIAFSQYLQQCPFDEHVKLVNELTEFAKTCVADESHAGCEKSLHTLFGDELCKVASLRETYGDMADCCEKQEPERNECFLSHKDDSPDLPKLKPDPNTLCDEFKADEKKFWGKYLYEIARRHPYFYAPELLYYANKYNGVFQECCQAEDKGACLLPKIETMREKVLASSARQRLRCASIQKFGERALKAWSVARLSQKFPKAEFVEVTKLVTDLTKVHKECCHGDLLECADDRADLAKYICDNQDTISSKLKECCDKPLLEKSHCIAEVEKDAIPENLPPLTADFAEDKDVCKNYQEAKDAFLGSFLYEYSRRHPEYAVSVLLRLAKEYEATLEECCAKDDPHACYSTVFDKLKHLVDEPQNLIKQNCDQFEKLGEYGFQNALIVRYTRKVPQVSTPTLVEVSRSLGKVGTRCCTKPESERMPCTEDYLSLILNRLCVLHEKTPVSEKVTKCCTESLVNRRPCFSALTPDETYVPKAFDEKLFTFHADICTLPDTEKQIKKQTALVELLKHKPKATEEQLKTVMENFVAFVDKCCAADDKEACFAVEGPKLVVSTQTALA
Description: as §1, §2

Rat-2 cells [7] = experiment: Rat-2 cell migration/invasion in Matrigel, DAPI nuclear staining; assay type: cell-based; conditions: alone (200 nM FMOD or peptide, or 100 pM TGF-β), 24 hour treatment
Description: Cell migration/invasion in Matrigel was documented at 200× magnificent after 24 hour treatment and quantitated using DAPI nuclear staining (results shown in FIG. 19A and repeat results in FIGS. 26B and 26C; DAPI pictures are shown in FIG. 19D).
(§3) Similar to FMOD (whole protein), the effect of FMOD peptides and/or TGF-β on cell migration was also evaluated by scratching method (FIGS. 18C and 25D). At the same time, cell migration/invasion in Matrigel was documented at 100× magnificent after 24 hour treatment and quantitated using DAPI nuclear staining (100 rather than 200× magnification was used because one group's invasion is quite low) (see the results in FIG. 20A and DAPI pictures in FIG. 20B). Passage 18 Rat-2 cells (20,000 cells/well) were used for the test under the treatment of 100 pM TGF-β1 (SEQ ID NO:64)/133 (SEQ ID NO:66) with/without 200 nM FMOD-F07-40C in DMEM-0.5% FBS.
Passage 18 Rat-2 cells (20,000 cells/well) were used for the test under the treatment of 100 pM TGF-β1/β3 with/without 200 nM FMOD-F06-40C in DMEM-0.5% FBS (FIG. 20C).

Rat-2 cells [8] = experiment: Rat-2 cell migration by scratching method; assay type: cell-based; conditions: alone (200 nM FMOD or 100 pM TGF-β), 24 hours
Description: 1×10^6 cell/well Rat-2 cells were seeded in 6-well plated with 3 ml DMEM-10% FBS. After 6 hours for adhesion, fresh DMEM-0.5% FBS medium was changed for serum-starving overnight. After pre-warmed DMEM rinsing, four wounds (each 1 mm wide; two horizontal and two vertical) were scratched employing a 1-ml tip for each treatment group. Cells were rinsed by DMEM for three times, followed by incubation with treatment medium [DMEM-0.5 FBS containing 100 pM (2.5 ng/ml) TGF-β1 (SEQ ID NO:64) or -β3 (SEQ ID NO:66) w/o 200 nM (11.2 μg/ml) FMOD (SEQ ID NO:1)] for 24 hours. Photos were captured at both 0-h and 24-h after the scratching. The unclosed distance was measured and quantified as an average gap (A) and migration index (B). Similar results were reproduced in four independent experiments. The scale bar in (A) equal to 100 The asterisks in (B) present P<0.05.
as §3

Molecule: TGF-β1: TGF-β isoform, SEQ ID NO:64
α-SMA staining [1]: moderate α-SMA staining
nodule-like cell aggregations/condensations, number (Rat-2 cells [2]; 100 pM TGF-β1 alone, 8-well chamber slides): < one
cell aggregation/density (H&E) (Rat-2 cells [2]; mono-treatment (200 nM FMOD or 100 pM TGF-β1), relative to controls): slightly increased the Rat-2 cell density
CTGF expression ([3]; mono-treatment (200 nM FMOD or 100 pM TGF-β1), 48 h, FIGS. 21B, 21C): moderate CTGF expression
CTGF expression (green fluorescence) ([3]; mono-treatment, another set of similar studies, FIG. 24): increases expression of CTGF

TGF-β2 binding (TGF-β2): minimal TGF-β2 binding
Molecule: Bovine serum albumin [BSA, reference compound]
TGF-β1 binding (TGF-β1 [4]): minimal TGF-β1 binding except at very high ratios
TGF-β3 binding (TGF-β3): did not bind to TGF-β3 even at high ratios

binding with TGF-β1 in ELISA assay (TGF-β1 [5]): able to bind with TGF-β1
B1: native extract bovine FMOD: native extract bovine FMOD, comparator in ELISA (protein)
chain: QYEEDSHWWFQFLRNQQSTYDDPYDPYPYEPYEPYPYGGEEGPAYAYGSPPQPEPRDCPQECDCPPNFPTAMYCDNRNLKYLPFVPSRMKYVYFQNNQISSIQEGVFDNATGLLWIALHGNQITSDKVGKKVFSKLRHLERLYLDHNNLTRIPSPLPRSLRELHLDHNQISRVPNNALEGLENLTALYLHHNEIQEVGSSMKGLRSLILLDLSYNHLRKVPDGLPSALEQLYLEHNNVFSVPDSYFRGSPKLLYVRLSHNSLTNNGLASNTFNSSSLLELDLSYNQLQKIPPVSTNLENLYLQGNRINEFSISSFCTVVDVMNFSKLQVLRLDGNEIKRSAMPADAPLCLRLASLIEI

binding result [6]: no binding
B2: TGF-β3 (ligand)
chain: NCCVRPLYIDFRQDLGWKWVHEPKGYYANFCSGPCPYLRSADTTHSTVLGLYNTLNPEASASPCCVPQDLEPLTILYYVGRTPKVEQLSNMVVKSCKCS
cell migration/invasion in Matrigel (Rat-2 cells [7]): inhibited migration
cell migration, scratch (Rat-2 cells [8]): inhibited migration
